Test [1] has as its target T1, DNA gyrase (Escherichia coli) (UniProt P0AES6+P0AES4). Briefly: In vitro antibacterial activity against gram-negative organism Prov. stuartii CMX-640. The format is functional. Particulars: Providencia stuartii.
The target of test [2] is T1, DNA gyrase (Escherichia coli). Particulars: Escherichia coli K-12.
Description: Concentration which causes 50% of the gyrase (Escherichia coli H560)-mediated maximal DNA cleavage.
Test [3] has the same target. Briefly: In vitro antibacterial activity against gram-positive organism Streptococcus bovis A-5169. The format is functional. Conditions: Streptococcus equinus.
Test [4] addresses T2, DNA gyrase (Staphylococcus aureus) (UniProt P0A0K8+P20831). Briefly: In vitro antibacterial activity against gram-positive organism Staphylococcus aureus ATCC 6538p. The format is functional.
In test [5] the target is T1, DNA gyrase (Escherichia coli). Briefly: In vitro antibacterial activity against gram-negative organism Klebsiella pneumoniae ATCC 8045. The format is functional.
Test [6] shares this target. Briefly: In vitro antibacterial activity against gram-positive organism Enterococcus faecium ATCC 8043. The format is functional.
For test [7] the target is unchanged. Briefly: In vitro antibacterial activity against gram-negative organism […] ATCC 13048. The format is functional. Conditions: Enterobacter aerogenes.
Test [8] is described as follows: In vitro antibacterial activity against gram-negative organism Pseudomonas aeruginosa DPHD-2862. Particulars: Pseudomonas aeruginosa; read-out: MIC. The format is functional.
For test [9], the target named is T2, DNA gyrase (Staphylococcus aureus). Briefly: In vitro antibacterial activity against gram-positive organism Staphylococcus aureus 1775. The format is functional.
For test [10] the target is unchanged. Briefly: In vitro antibacterial activity against gram-positive organism Staphylococcus aureus NCTC-10649M. The format is functional.
In a further test the test system is Streptococcus pyogenes. Briefly: In vitro antibacterial activity against gram-positive organism Streptococcus pyogenes EES61. The format is functional. Conditions: Streptococcus pyogenes; read-out: MIC.
Test [11] can be described thus: In vitro antibacterial activity against gram-negative organism Pseudomonas aeruginosa 5007. The format is functional.
Test [12] concerns the target T1, DNA gyrase (Escherichia coli). Briefly: In vitro antibacterial against gram-negative organism Escherichia coli JUHL. The format is functional. Particulars: Escherichia coli K-12.
The mark [13] stands for this setting: Pseudomonas aeruginosa, read-out: MIC.

In brackets after ≈: the same amount, converted by molar mass.

T2 sequence (P0A0K8 2-644 limits assumed): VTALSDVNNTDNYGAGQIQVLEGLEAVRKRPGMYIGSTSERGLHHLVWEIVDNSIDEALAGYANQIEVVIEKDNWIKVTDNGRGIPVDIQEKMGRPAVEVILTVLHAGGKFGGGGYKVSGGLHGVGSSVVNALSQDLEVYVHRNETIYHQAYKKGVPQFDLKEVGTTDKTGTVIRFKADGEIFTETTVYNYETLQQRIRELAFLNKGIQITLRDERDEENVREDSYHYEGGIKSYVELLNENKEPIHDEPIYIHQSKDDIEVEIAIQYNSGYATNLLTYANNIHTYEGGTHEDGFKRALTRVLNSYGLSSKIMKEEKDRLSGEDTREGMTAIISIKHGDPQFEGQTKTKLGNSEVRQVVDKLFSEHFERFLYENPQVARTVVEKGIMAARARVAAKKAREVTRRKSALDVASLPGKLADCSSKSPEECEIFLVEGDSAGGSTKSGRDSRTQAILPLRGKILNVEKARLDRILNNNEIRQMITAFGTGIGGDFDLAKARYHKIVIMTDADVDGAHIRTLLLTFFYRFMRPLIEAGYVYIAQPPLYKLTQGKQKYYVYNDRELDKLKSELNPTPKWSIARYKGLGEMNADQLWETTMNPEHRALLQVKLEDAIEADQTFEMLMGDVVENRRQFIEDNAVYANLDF
T2 sequence (P20831 whole entry partner): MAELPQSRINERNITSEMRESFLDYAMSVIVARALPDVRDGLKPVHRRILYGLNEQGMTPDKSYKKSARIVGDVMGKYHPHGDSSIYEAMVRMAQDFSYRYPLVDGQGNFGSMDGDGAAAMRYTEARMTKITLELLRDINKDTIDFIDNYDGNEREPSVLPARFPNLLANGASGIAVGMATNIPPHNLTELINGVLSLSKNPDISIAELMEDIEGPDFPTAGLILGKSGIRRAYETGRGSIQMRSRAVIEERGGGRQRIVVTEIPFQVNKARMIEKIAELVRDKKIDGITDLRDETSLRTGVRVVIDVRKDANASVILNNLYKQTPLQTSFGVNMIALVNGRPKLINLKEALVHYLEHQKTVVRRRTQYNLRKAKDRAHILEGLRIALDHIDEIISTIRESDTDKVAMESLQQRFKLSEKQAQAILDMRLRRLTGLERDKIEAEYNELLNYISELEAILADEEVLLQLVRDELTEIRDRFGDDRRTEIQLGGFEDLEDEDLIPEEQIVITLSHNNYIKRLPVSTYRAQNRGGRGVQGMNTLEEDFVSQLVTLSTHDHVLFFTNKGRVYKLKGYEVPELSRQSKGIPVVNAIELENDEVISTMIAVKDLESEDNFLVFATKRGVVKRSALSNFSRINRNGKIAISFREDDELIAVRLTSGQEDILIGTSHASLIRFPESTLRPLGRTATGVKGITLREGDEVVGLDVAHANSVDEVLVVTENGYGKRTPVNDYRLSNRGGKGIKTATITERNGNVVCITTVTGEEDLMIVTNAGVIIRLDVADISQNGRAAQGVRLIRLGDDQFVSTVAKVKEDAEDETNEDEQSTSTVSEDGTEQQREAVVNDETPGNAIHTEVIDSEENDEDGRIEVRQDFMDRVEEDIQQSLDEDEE

On to `CN1CCN(c2nc3c(C4CC4)cc(C(=O)O)c(=O)n3cc2F)CC1`, for which the MIC was 50 µg/mL (≈ 144 µM) in test [1]; 50 µg/mL (≈ 144 µM) in test [3]; 1.56 µg/mL (≈ 4.5 µM) in test [4]; 0.1 µg/mL (≈ 0.289 µM) in [5]; 12.5 µg/mL (≈ 36.1 µM) in [6]; 0.39 µg/mL (≈ 1.13 µM) in test [7]. The MIC is above 100 µg/mL in [8]; 100 µg/mL (≈ 289 µM) in test [9]; 0.78 µg/mL (≈ 2.25 µM) in [10]; 12.5 µg/mL (≈ 36.1 µM) in the test on Streptococcus pyogenes; 3.1 µg/mL (≈ 8.95 µM) in test [11] (setting [13]); 0.2 µg/mL (≈ 0.577 µM) in [12]. The molecule further showed a CC50 in [2] of 1 µg/mL (≈ 2.89 µM).
Consider `O=C(O)c1cc(C2CC2)c2nc(N3CCNCC3)c(F)cn2c1=O`, for which the MIC in test [1] amounted to 12.5 µg/mL (≈ 37.6 µM); in [3], 12.5 µg/mL (≈ 37.6 µM); in test [4], 0.78 µg/mL (≈ 2.35 µM); in [5], 0.05 µg/mL (≈ 0.15 µM); in [6], 12.5 µg/mL (≈ 37.6 µM); in [7], 0.05 µg/mL (≈ 0.15 µM). In addition, the MIC came out at 100 µg/mL (≈ 301 µM) in [8]; 50 µg/mL (≈ 150 µM) in test [9]; 1.56 µg/mL (≈ 4.69 µM) in test [10]; 12.5 µg/mL (≈ 37.6 µM) in the test with Streptococcus pyogenes; 0.39 µg/mL (≈ 1.17 µM) in [11] (setting [13]); 0.05 µg/mL (≈ 0.15 µM) in test [12]. The CC50 in test [2] was determined as 2 µg/mL (≈ 6.02 µM).
For `CC(=O)N[C@H]1C[C@H](C)N(c2nc3c(-c4ccc(F)cc4F)cc(C(=O)O)c(=O)n3cc2F)C1`, the MIC in [1] was 25 µg/mL (≈ 54.3 µM); in test [3], 3.1 µg/mL (≈ 6.73 µM); in [4] it was 0.1 µg/mL (≈ 0.217 µM); in [5], 0.39 µg/mL (≈ 0.847 µM); in [6] it was 1.56 µg/mL (≈ 3.39 µM); in [7], 3.1 µg/mL (≈ 6.73 µM). Also, the MIC in [8] was above 100 µg/mL; in test [9], 25 µg/mL (≈ 54.3 µM); in [10], 0.2 µg/mL (≈ 0.434 µM); in the test on Streptococcus pyogenes, 0.78 µg/mL (≈ 1.69 µM); in test [11] (setting [13]) it was 3.1 µg/mL (≈ 6.73 µM); in [12], 0.78 µg/mL (≈ 1.69 µM). In test [2], the CC50 is 1.3 µg/mL (≈ 2.82 µM).
As for `CCc1cc(C(=O)O)c(=O)n2cc(F)c(N3CCC(N)C3)c(C)c12` (centres undefined), the MIC came to 0.78 µg/mL (≈ 2.34 µM) in test [1]; 0.78 µg/mL (≈ 2.34 µM) in test [3]; 0.1 µg/mL (≈ 0.3 µM) in test [4]; 0.02 µg/mL (≈ 0.06 µM) in [5]; 0.2 µg/mL (≈ 0.6 µM) in test [6]; 0.05 µg/mL (≈ 0.15 µM) in test [7]. Besides, the MIC in test [8] was 12.5 µg/mL (≈ 37.5 µM); in [9], 12.5 µg/mL (≈ 37.5 µM); in [10] it was 0.1 µg/mL (≈ 0.3 µM); in the test with Streptococcus pyogenes, 0.39 µg/mL (≈ 1.17 µM); in [11] (setting [13]) it was 0.2 µg/mL (≈ 0.6 µM); in [12] it was 0.01 µg/mL (≈ 0.03 µM). For the same molecule, in test [2], the CC50 amounted to 3.2 µg/mL (≈ 9.6 µM).
With `O=C(O)c1cc(-c2ccc(F)cc2F)c2nc(N3CCC(O)C3)c(F)cn2c1=O` (centres undefined), the MIC in test [1] came out at 6.2 µg/mL (≈ 15.3 µM); in test [3], 6.2 µg/mL (≈ 15.3 µM); in test [4], 0.05 µg/mL (≈ 0.123 µM); in [5] it was 0.05 µg/mL (≈ 0.123 µM); in test [6], 0.78 µg/mL (≈ 1.92 µM); in test [7], 0.39 µg/mL (≈ 0.962 µM). For the same molecule, the MIC was above 100 µg/mL in test [8]; 100 µg/mL (≈ 247 µM) in [9]; 0.05 µg/mL (≈ 0.123 µM) in [10]; 0.78 µg/mL (≈ 1.92 µM) in the test with Streptococcus pyogenes; 0.78 µg/mL (≈ 1.92 µM) in [11] (setting [13]); 0.1 µg/mL (≈ 0.247 µM) in test [12]. Also, the CC50 in [2] turned out to be 0.5 µg/mL (≈ 1.23 µM).
For the molecule `Cc1c(N2CCC(n3ccnn3)C2)c(F)cn2c(=O)c(C(=O)O)cc(C3CC3)c12` (centres undefined), the MIC was 0.39 µg/mL (≈ 0.981 µM) in test [1]; 0.2 µg/mL (≈ 0.503 µM) in test [3]; 0.01 µg/mL (≈ 0.0252 µM) in test [4]; 0.05 µg/mL (≈ 0.126 µM) in test [5]; 0.05 µg/mL (≈ 0.126 µM) in test [6]; 0.2 µg/mL (≈ 0.503 µM) in test [7]. Also, the MIC was 12.5 µg/mL (≈ 31.5 µM) in test [8]; 0.78 µg/mL (≈ 1.96 µM) in test [9]; 0.01 µg/mL (≈ 0.0252 µM) in test [10]; 0.05 µg/mL (≈ 0.126 µM) with Streptococcus pyogenes; 0.39 µg/mL (≈ 0.981 µM) in test [11] (setting [13]); 0.01 µg/mL (≈ 0.0252 µM) in test [12]. Besides, in test [2], the CC50 turned out to be 0.07 µg/mL (≈ 0.176 µM).
With `Cc1c(N2C[C@H]3CCC[C@H](N)[C@H]3C2)c(F)cn2c(=O)c(C(=O)O)cc(C3CC3)c12`, the MIC in test [1] is 0.78 µg/mL (≈ 1.95 µM); in [3] it was 0.01 µg/mL (≈ 0.025 µM); in test [4], 0.005 µg/mL (≈ 0.0125 µM); in [5] it was 0.02 µg/mL (≈ 0.0501 µM); in test [6], 0.02 µg/mL (≈ 0.0501 µM); in test [7] it was 0.1 µg/mL (≈ 0.25 µM). The MIC in [8] worked out at 6.2 µg/mL (≈ 15.5 µM); in test [9], 0.39 µg/mL (≈ 0.976 µM); in test [10], 0.005 µg/mL (≈ 0.0125 µM); in the test with Streptococcus pyogenes it was 0.02 µg/mL (≈ 0.0501 µM); in [11] it was 0.39 pug ml-1; in test [12], 0.02 µg/mL (≈ 0.0501 µM). For the same molecule, the CC50 in test [2] was determined as 0.3 µg/mL (≈ 0.751 µM).
On to `Cc1c(F)c(N2CCC(N)C2)cc2c(C3CC3)cc(C(=O)O)c(=O)n12` (centres undefined), for which the MIC worked out at 12.5 µg/mL (≈ 36.2 µM) in test [1]; 6.2 µg/mL (≈ 18 µM) in test [3]; 0.78 µg/mL (≈ 2.26 µM) in test [4]; 0.1 µg/mL (≈ 0.29 µM) in test [5]; 6.2 µg/mL (≈ 18 µM) in test [6]; 0.39 µg/mL (≈ 1.13 µM) in test [7]. Further, the MIC was determined as 100 µg/mL (≈ 290 µM) in test [8]; 50 µg/mL (≈ 145 µM) in [9]; 1.56 µg/mL (≈ 4.52 µM) in test [10]; 3.1 µg/mL (≈ 8.98 µM) in the test with Streptococcus pyogenes; 1.56 µg/mL (≈ 4.52 µM) in test [11] (setting [13]); 0.2 µg/mL (≈ 0.579 µM) in test [12]. This molecule also gave a CC50 in [2] of 10 µg/mL (≈ 29 µM).

The record behind these values is ChEMBL document CHEMBL1129258, “Synthesis and structure-activity relationships of 2-pyridones: a novel series of potent DNA gyrase inhibitors as antibacterial agents” (J Med Chem, 1996).
